From ChEMBL document CHEMBL3596103, “Synthesis of novel amide functionalized 2H-chromene derivatives by Ritter amidation of primary alcohol using HBF4·OEt2 as a mild and versatile reagent and evaluation of their antimicrobial and anti-biofilm activities” (Bioorg Med Chem Lett, 2015)
≈ marks a conversion by molar mass, not a printed value. Calls of active or inactive are those of the source. The rule behind the calls is not given here.

What was measured:
Bacillus subtilis [1] = assay: Inhibition of bio-film formation of Bacillus subtilis MTCC 121 incubated for 24 hrs at 37 degC under static conditions by crystal violet staining method; type: functional, organism-based; details: MTCC 121, 24 h
Staphylococcus aureus [2] = assay: Induction of intracellular ROS accumulation in Staphylococcus aureus MLS16 MTCC 2940 sessile biofilm cells at 0.5 to 2 um incubated for 24 hrs at 35 degC by DCFH-DA dye based fluorescence assay; type: functional, organism-based
Escherichia coli [3] = assay: Inhibition of bio-film formation of Escherichia coli MTCC 739 incubated for 24 hrs at 37 degC under static conditions by crystal violet staining method; type: functional, organism-based; details: MTCC 739, 24 h
Micrococcus luteus [4] = assay: Inhibition of bio-film formation of Micrococcus luteus MTCC 2470 incubated for 24 hrs at 37 degC under static conditions by crystal violet staining method; type: functional, organism-based; details: MTCC 2470, 24 h
Raoultella planticola [5] = assay: Inhibition of bio-film formation of Klebsiella planticola MTCC 530 incubated for 24 hrs at 37 degC under static conditions by crystal violet staining method; type: functional, organism-based; details: MTCC 530, 24 h
Staphylococcus aureus [6] = assay: Inhibition of bio-film formation of Staphylococcus aureus MLS16 MTCC 2940 incubated for 24 hrs at 37 degC under static conditions by crystal violet staining method; type: functional, organism-based; details: MLS16 MTCC 2940, 24 h
Micrococcus luteus [7] = assay: Antimicrobial activity against Micrococcus luteus MTCC 2470 incubated for 24 hrs at 37 degC by well diffusion method; type: functional; details: MTCC 2470, 24 h
Candida albicans = assay: Antimicrobial activity against Candida albicans MTCC 3017 incubated for 24 hrs at 30 degC by well diffusion method; type: functional; details: MTCC 3017, 24 h
Micrococcus luteus [8] = assay: Bactericidal activity against Micrococcus luteus MTCC 2470 incubated for 24 hrs at 37 degC; type: functional; details: MTCC 2470, 24 h
Staphylococcus aureus [9] = assay: Bactericidal activity against Staphylococcus aureus MLS16 MTCC 2940 incubated for 24 hrs at 37 degC; type: functional; details: MLS16 MTCC 2940, 24 h
Bacillus subtilis [10] = assay: Antimicrobial activity against Bacillus subtilis MTCC 121 incubated for 24 hrs at 37 degC by well diffusion method; type: functional; details: MTCC 121, 24 h
Bacillus subtilis [11] = assay: Bactericidal activity against Bacillus subtilis MTCC 121 incubated for 24 hrs at 37 degC; type: functional; details: MTCC 121, 24 h
Pseudomonas aeruginosa = assay: Antimicrobial activity against Pseudomonas aeruginosa MTCC 2453 incubated for 24 hrs at 37 degC by well diffusion method; type: functional; details: MTCC 2453, 24 h
Escherichia coli [12] = assay: Antimicrobial activity against Escherichia coli MTCC 739 incubated for 24 hrs at 37 degC by well diffusion method; type: functional; details: MTCC 739, 24 h
Raoultella planticola [13] = assay: Bactericidal activity against Klebsiella planticola MTCC 530 incubated for 24 hrs at 37 degC; type: functional; details: MTCC 530, 24 h
Staphylococcus aureus [14] = assay: Antimicrobial activity against Staphylococcus aureus MLS16 MTCC 2940 incubated for 24 hrs at 37 degC by well diffusion method; type: functional; details: MLS16 MTCC 2940, 24 h
Raoultella planticola [15] = assay: Antimicrobial activity against Klebsiella planticola MTCC 530 incubated for 24 hrs at 37 degC by well diffusion method; type: functional; details: MTCC 530, 24 h
Escherichia coli [16] = assay: Bactericidal activity against Escherichia coli MTCC 739 incubated for 24 hrs at 37 degC; type: functional; details: MTCC 739, 24 h

**Q.** Which results are given for `CC[C@H]1OC(=O)[C@H](C)[C@@H](O[C@H]2C[C@@](C)(OC)[C@@H](O)[C@H](C)O2)[C@H](C)[C@@H](O[C@@H]2O[C@H](C)C[C@H](N(C)C)[C@H]2O)[C@](C)(O)C[C@@H](C)C(=O)[C@H](C)[C@@H](O)[C@]1(C)O` [ERYTHROMYCIN]?
**A.** IC50 (Bacillus subtilis [1]): 0.42 µM; Activity (Staphylococcus aureus [2]): Active; IC50 (Escherichia coli [3]): 0.43 µM; IC50 (Micrococcus luteus [4]): 0.31 µM; IC50 (Raoultella planticola [5]): 0.35 µM; IC50 (Staphylococcus aureus [6]): 0.25 µM

**Q.** `O=C(CBr)NCC1=Cc2cc(Br)ccc2OC1(O)C(F)(F)F` (stereo not given) was tested. Which MIC (Micrococcus luteus [7]) did it give?
**A.** The MIC was 8.3 µM.

**Q.** What about the MIC (Candida albicans) of the same compound?
**A.** The MIC was > 125 µg/mL.

**Q.** And the MBC (Micrococcus luteus [8])?
**A.** The MBC was 8.3 µM (≈ 3.69 µg/mL).

**Q.** And the MBC (Staphylococcus aureus [9])?
**A.** The MBC was 4 µM (≈ 1.78 µg/mL).

**Q.** What about the MIC (Bacillus subtilis [10]) of the same compound?
**A.** The MIC was 4 µM.

**Q.** And the MBC (Bacillus subtilis [11])?
**A.** The MBC was 4 µM (≈ 1.78 µg/mL).

**Q.** And the MIC (Pseudomonas aeruginosa)?
**A.** The MIC was > 125 µg/mL.

**Q.** And the MIC (Escherichia coli [12])?
**A.** Its MIC is 8.3 µM.

**Q.** What about the IC50 (Bacillus subtilis [1]) of the same compound?
**A.** Its IC50 is 1.4 µM.

**Q.** What about the Activity (Staphylococcus aureus [2]) of the same compound?
**A.** Its Activity is “Active”.

**Q.** What about the IC50 (Escherichia coli [3]) of the same compound?
**A.** The IC50 was 1.4 µM.

**Q.** What about the IC50 (Micrococcus luteus [4]) of the same compound?
**A.** The IC50 was 1.7 µM.

**Q.** What about the IC50 (Raoultella planticola [5]) of the same compound?
**A.** Its IC50 is 1.7 µM.

**Q.** And the MBC (Raoultella planticola [13])?
**A.** Its MBC is 8.3 µM (≈ 3.69 µg/mL).

**Q.** What about the MIC (Staphylococcus aureus [14]) of the same compound?
**A.** The MIC was 4 µM.

**Q.** What about the MIC (Raoultella planticola [15]) of the same compound?
**A.** Its MIC is 4 µM.

**Q.** And the MBC (Escherichia coli [16])?
**A.** The MBC was 16.6 µM (≈ 7.39 µg/mL).

**Q.** What about the IC50 (Staphylococcus aureus [6]) of the same compound?
**A.** Its IC50 is 1.2 µM.

**Q.** For `CC(=O)NCC1=Cc2ccccc2OC1(O)C(F)(F)F` (stereo not given), which MIC (Micrococcus luteus [7]) is on record?
**A.** The MIC was > 125 µg/mL.

**Q.** And the MIC (Candida albicans)?
**A.** Its MIC is > 125 µg/mL.

**Q.** And the MIC (Bacillus subtilis [10])?
**A.** The MIC was > 125 µg/mL.

**Q.** And the MIC (Pseudomonas aeruginosa)?
**A.** The MIC was > 125 µg/mL.

**Q.** And the MIC (Escherichia coli [12])?
**A.** The MIC was > 125 µg/mL.

**Q.** And the MIC (Staphylococcus aureus [14])?
**A.** The MIC was > 125 µg/mL.

**Q.** And the MIC (Raoultella planticola [15])?
**A.** Its MIC is > 125 µg/mL.

**Q.** `O=C(CCBr)NCC1=Cc2cc(Br)ccc2OC1(O)C(F)(F)F` (stereo not given) was tested. Which MIC (Micrococcus luteus [7]) did it give?
**A.** The MIC was > 125 µg/mL.

**Q.** What about the MIC (Candida albicans) of the same compound?
**A.** Its MIC is > 125 µg/mL.

**Q.** What about the MIC (Bacillus subtilis [10]) of the same compound?
**A.** Its MIC is > 125 µg/mL.

**Q.** And the MIC (Pseudomonas aeruginosa)?
**A.** Its MIC is > 125 µg/mL.

**Q.** And the MIC (Escherichia coli [12])?
**A.** Its MIC is > 125 µg/mL.

**Q.** What about the MIC (Staphylococcus aureus [14]) of the same compound?
**A.** The MIC was > 125 µg/mL.

**Q.** And the MIC (Raoultella planticola [15])?
**A.** Its MIC is > 125 µg/mL.

**Q.** Which MIC (Micrococcus luteus [7]) does the source give for `O=C(Cc1ccc(Br)cc1)NCC1=Cc2ccccc2OC1(O)C(F)(F)F` (stereo not given) here?
**A.** The MIC was > 125 µg/mL.

**Q.** What about the MIC (Candida albicans) of the same compound?
**A.** The MIC was > 125 µg/mL.

**Q.** What about the MBC (Micrococcus luteus [8]) of the same compound?
**A.** The MBC was 33.6 µM (≈ 14.9 µg/mL).

**Q.** What about the MBC (Staphylococcus aureus [9]) of the same compound?
**A.** The MBC was 67.2 µM (≈ 29.7 µg/mL).

**Q.** And the MIC (Bacillus subtilis [10])?
**A.** Its MIC is 33.6 µM.

**Q.** What about the MBC (Bacillus subtilis [11]) of the same compound?
**A.** The MBC was > 230 µM.

**Q.** What about the MIC (Pseudomonas aeruginosa) of the same compound?
**A.** The MIC was > 125 µg/mL.

**Q.** And the MIC (Escherichia coli [12])?
**A.** Its MIC is > 125 µg/mL.

**Q.** What about the IC50 (Micrococcus luteus [4]) of the same compound?
**A.** The IC50 was 17.4 µM.

**Q.** And the MBC (Raoultella planticola [13])?
**A.** Its MBC is > 230 µM.

**Q.** What about the MIC (Staphylococcus aureus [14]) of the same compound?
**A.** Its MIC is > 125 µg/mL.

**Q.** And the MIC (Raoultella planticola [15])?
**A.** The MIC was 33.6 µM.

**Q.** And the MBC (Escherichia coli [16])?
**A.** The MBC was > 230 µM.

**Q.** And the IC50 (Staphylococcus aureus [6])?
**A.** Its IC50 is 16.8 µM.

**Q.** What does the source list for `O=C(Cc1ccc(Br)cc1)NCC1=Cc2cc(Br)ccc2OC1(O)C(F)(F)F` (stereo not given)?
**A.** MIC (Micrococcus luteus [7]): 28.6 µM; MIC (Candida albicans): > 125 µg/mL; MBC (Micrococcus luteus [8]): 28.6 µM (≈ 14.9 µg/mL); MBC (Staphylococcus aureus [9]): 14.3 µM (≈ 7.45 µg/mL); MIC (Bacillus subtilis [10]): 14.3 µM; MBC (Bacillus subtilis [11]): 28.6 µM (≈ 14.9 µg/mL); MIC (Pseudomonas aeruginosa): > 125 µg/mL; MIC (Escherichia coli [12]): 14.3 µM; IC50 (Bacillus subtilis [1]): 8.8 µM; IC50 (Escherichia coli [3]): 5.8 µM; IC50 (Micrococcus luteus [4]): 7.7 µM; IC50 (Raoultella planticola [5]): 14.8 µM; MBC (Raoultella planticola [13]): 57.3 µM (≈ 29.9 µg/mL); MIC (Staphylococcus aureus [14]): 14.3 µM; MIC (Raoultella planticola [15]): 14.3 µM; MBC (Escherichia coli [16]): 14.3 µM (≈ 7.45 µg/mL); IC50 (Staphylococcus aureus [6]): 6.2 µM

**Q.** How did the MIC (Candida albicans) turn out when `O=C(CCBr)NCC1=Cc2cccc(F)c2OC1(O)C(F)(F)F` (stereo not given) was run?
**A.** Its MIC is > 125 µg/mL.

**Q.** And the MIC (Staphylococcus aureus [14])?
**A.** Its MIC is > 125 µg/mL.

**Q.** Which results are given for `O=C(O)c1cn(C2CC2)c2cc(N3CCNCC3)c(F)cc2c1=O` [CIPROFLOXACIN]?
**A.** MIC (Micrococcus luteus [7]): 2.7 µM; MIC (Candida albicans): > 125 µg/mL; MBC (Micrococcus luteus [8]): 5.7 µM (≈ 1.89 µg/mL); MBC (Staphylococcus aureus [9]): 2.7 µM (≈ 0.895 µg/mL); MIC (Bacillus subtilis [10]): 2.7 µM; MBC (Bacillus subtilis [11]): 5.7 µM (≈ 1.89 µg/mL); MIC (Pseudomonas aeruginosa): 2.7 µM; MIC (Escherichia coli [12]): 2.7 µM; MBC (Raoultella planticola [13]): 2.7 µM (≈ 0.895 µg/mL); MIC (Staphylococcus aureus [14]): 2.7 µM; MIC (Raoultella planticola [15]): 2.7 µM; MBC (Escherichia coli [16]): 5.7 µM (≈ 1.89 µg/mL)

**Q.** `O=C(CCBr)NCC1=Cc2ccccc2OC1(O)C(F)(F)F` (stereo not given) was tested. Which MIC (Micrococcus luteus [7]) did it give?
**A.** The MIC was > 125 µg/mL.

**Q.** What about the MIC (Candida albicans) of the same compound?
**A.** The MIC was > 125 µg/mL.

**Q.** What about the MIC (Bacillus subtilis [10]) of the same compound?
**A.** The MIC was > 125 µg/mL.

**Q.** What about the MIC (Pseudomonas aeruginosa) of the same compound?
**A.** The MIC was > 125 µg/mL.

**Q.** And the MIC (Escherichia coli [12])?
**A.** Its MIC is > 125 µg/mL.

**Q.** What about the MIC (Staphylococcus aureus [14]) of the same compound?
**A.** Its MIC is > 125 µg/mL.

**Q.** What about the MIC (Raoultella planticola [15]) of the same compound?
**A.** The MIC was > 125 µg/mL.
